Usually pIC50 stands for the negative decadic logarithm of the IC50, by convention in mol/L. As usually defined, the pKi is −log10 of the Ki, conventionally taken in molar units.

IC50 and Ki data for nine compounds are collected here from ChEMBL document CHEMBL1909046, “DrugMatrix in vitro pharmacology data”.

For data set [1], the target named is T1, 3-hydroxy-3-methylglutaryl-coenzyme A reductase (Homo sapiens, UniProt P04035).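 Further: enzyme inhibition assay of HMG-CoA reductase using radiolabeled [14C]HMG-CoA as substrate; in other assays of this panel Not Active means under 50% inhibition at 10 µM.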
T1 sequence (P04035 whole entry): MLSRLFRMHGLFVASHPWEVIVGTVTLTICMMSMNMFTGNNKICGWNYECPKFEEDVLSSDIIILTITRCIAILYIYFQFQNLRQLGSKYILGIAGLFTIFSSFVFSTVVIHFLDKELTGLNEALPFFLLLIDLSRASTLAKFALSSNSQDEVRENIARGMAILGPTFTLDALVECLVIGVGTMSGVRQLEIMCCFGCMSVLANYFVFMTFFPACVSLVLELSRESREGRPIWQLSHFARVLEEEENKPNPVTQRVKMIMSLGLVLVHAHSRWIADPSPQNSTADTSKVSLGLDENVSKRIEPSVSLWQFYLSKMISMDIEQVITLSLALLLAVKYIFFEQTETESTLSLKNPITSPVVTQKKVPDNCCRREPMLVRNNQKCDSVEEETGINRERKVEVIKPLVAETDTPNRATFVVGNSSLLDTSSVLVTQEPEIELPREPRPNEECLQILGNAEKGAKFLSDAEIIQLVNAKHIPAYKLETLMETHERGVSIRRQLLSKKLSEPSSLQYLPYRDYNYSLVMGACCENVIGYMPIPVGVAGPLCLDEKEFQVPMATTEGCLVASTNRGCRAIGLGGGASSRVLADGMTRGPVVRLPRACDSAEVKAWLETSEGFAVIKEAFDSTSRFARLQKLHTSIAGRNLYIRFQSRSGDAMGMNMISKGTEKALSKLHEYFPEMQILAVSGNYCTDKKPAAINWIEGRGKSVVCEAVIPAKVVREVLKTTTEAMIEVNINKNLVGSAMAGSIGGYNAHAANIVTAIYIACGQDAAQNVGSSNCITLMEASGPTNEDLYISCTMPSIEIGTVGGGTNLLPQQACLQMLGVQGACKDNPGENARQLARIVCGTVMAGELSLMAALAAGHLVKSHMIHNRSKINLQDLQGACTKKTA
The arrangement: species or system Escherichia coli.

For another data set, the target named is Cytochrome P450 2C19 (Homo sapiens, UniProt P33261). The conditions noted are these: bti-tn-5b1-4. Further: in other assays of this panel Not Active means under 50% inhibition at 10 µM.
Cytochrome P450 2C19, sequence (P33261 whole entry): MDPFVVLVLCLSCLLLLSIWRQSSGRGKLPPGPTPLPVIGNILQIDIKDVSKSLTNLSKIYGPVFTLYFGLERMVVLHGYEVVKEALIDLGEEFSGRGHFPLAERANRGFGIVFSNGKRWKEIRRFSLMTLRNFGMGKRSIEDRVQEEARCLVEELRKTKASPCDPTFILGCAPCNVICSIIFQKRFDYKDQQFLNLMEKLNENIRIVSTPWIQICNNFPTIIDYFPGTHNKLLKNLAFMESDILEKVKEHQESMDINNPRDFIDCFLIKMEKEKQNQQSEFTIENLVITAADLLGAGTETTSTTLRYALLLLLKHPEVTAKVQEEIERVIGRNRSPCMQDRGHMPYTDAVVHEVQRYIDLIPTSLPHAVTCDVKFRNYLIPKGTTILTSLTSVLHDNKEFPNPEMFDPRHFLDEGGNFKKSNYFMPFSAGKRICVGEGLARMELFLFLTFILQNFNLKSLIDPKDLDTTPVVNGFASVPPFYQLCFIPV
The next data set has as its target T2, Progesterone receptor (Bos taurus, UniProt Q690N0).
T2 sequence (Q690N0 whole entry): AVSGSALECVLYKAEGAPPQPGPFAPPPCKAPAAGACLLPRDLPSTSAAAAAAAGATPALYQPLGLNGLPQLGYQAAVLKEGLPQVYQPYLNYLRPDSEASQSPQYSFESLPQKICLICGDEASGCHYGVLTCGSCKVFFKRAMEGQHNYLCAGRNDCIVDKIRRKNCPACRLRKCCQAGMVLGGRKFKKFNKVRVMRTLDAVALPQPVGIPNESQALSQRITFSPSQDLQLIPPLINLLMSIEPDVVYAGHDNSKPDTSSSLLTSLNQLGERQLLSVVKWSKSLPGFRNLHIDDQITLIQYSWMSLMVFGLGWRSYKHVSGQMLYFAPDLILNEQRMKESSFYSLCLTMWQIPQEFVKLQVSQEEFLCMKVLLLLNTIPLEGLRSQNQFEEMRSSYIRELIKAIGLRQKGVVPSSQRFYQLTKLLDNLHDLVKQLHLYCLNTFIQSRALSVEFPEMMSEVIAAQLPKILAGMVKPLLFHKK
Nature of the data set: DRUGMATRIX: Progesterone radioligand binding (ligand: [3H] R-5020). Type of data set: tissue-based, Uterus. The conditions noted are these: Not Active = under 50% inhibition at 10 µM.

For a further data set, the target named is T3, Neutrophil elastase (Homo sapiens, UniProt P08246).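 Further: inhibition of neutrophil elastase enzyme activity, measured with a p-nitroanilide-linked peptide substrate; in other assays of this panel Not Active means under 50% inhibition at 10 µM.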
T3 sequence (P08246 whole entry): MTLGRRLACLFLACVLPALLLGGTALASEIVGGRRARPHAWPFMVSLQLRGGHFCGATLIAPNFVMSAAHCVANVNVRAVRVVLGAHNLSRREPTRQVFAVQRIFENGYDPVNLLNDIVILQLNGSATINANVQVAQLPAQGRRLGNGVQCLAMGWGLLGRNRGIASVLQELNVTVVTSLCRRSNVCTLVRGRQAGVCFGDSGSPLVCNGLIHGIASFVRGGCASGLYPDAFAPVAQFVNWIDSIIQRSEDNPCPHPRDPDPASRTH
The data set is classed as tissue-based.

Data set [2] deals with Vascular endothelial growth factor receptor 1 (Homo sapiens, UniProt P17948). The data set is classed as cell-based. The conditions noted are these: huvec.
Vascular endothelial growth factor receptor 1, sequence (P17948 whole entry): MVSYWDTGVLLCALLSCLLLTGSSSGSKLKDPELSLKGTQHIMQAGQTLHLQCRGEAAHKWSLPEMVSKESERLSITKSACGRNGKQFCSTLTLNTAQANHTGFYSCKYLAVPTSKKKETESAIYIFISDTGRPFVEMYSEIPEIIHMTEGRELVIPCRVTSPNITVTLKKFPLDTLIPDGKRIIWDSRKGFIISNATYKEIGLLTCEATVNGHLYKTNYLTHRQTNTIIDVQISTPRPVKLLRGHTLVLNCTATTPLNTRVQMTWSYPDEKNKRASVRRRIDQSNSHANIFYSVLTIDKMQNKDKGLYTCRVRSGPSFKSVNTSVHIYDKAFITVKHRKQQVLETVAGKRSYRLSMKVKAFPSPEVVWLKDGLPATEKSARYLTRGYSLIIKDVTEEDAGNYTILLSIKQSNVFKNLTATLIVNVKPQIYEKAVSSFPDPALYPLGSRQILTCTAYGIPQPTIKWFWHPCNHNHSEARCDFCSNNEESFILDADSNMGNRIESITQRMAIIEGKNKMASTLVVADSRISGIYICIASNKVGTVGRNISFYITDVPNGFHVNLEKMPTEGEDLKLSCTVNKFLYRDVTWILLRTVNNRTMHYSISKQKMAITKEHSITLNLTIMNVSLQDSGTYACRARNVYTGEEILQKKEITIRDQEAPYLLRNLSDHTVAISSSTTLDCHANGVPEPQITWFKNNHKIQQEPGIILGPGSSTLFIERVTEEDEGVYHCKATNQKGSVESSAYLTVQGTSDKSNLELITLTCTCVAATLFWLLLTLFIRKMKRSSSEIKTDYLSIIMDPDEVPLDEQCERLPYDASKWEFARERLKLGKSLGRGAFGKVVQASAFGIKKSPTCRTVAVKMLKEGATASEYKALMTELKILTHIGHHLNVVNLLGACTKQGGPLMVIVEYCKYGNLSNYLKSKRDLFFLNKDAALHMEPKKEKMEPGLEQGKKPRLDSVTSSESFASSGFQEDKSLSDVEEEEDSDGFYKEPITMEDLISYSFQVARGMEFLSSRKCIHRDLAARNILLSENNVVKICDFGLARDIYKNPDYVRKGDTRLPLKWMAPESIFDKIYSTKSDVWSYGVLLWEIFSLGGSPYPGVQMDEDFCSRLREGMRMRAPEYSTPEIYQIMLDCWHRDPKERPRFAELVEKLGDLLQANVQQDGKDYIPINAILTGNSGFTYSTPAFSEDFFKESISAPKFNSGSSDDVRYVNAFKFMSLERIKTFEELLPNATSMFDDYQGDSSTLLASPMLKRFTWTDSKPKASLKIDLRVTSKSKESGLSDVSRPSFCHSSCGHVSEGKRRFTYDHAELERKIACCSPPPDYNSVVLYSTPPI
Data set [3] deals with Epidermal growth factor receptor (Homo sapiens, UniProt P00533). Nature of the data set: DRUGMATRIX: Protein Tyrosine Kinase, EGF Receptor enzyme inhibition (substrate: Poly(Glu:Tyr)). The conditions noted are these: insect cells; Not Active = under 50% inhibition at 10 µM. Type of data set: cell-based, Insect cells.
Epidermal growth factor receptor, sequence (P00533 whole entry): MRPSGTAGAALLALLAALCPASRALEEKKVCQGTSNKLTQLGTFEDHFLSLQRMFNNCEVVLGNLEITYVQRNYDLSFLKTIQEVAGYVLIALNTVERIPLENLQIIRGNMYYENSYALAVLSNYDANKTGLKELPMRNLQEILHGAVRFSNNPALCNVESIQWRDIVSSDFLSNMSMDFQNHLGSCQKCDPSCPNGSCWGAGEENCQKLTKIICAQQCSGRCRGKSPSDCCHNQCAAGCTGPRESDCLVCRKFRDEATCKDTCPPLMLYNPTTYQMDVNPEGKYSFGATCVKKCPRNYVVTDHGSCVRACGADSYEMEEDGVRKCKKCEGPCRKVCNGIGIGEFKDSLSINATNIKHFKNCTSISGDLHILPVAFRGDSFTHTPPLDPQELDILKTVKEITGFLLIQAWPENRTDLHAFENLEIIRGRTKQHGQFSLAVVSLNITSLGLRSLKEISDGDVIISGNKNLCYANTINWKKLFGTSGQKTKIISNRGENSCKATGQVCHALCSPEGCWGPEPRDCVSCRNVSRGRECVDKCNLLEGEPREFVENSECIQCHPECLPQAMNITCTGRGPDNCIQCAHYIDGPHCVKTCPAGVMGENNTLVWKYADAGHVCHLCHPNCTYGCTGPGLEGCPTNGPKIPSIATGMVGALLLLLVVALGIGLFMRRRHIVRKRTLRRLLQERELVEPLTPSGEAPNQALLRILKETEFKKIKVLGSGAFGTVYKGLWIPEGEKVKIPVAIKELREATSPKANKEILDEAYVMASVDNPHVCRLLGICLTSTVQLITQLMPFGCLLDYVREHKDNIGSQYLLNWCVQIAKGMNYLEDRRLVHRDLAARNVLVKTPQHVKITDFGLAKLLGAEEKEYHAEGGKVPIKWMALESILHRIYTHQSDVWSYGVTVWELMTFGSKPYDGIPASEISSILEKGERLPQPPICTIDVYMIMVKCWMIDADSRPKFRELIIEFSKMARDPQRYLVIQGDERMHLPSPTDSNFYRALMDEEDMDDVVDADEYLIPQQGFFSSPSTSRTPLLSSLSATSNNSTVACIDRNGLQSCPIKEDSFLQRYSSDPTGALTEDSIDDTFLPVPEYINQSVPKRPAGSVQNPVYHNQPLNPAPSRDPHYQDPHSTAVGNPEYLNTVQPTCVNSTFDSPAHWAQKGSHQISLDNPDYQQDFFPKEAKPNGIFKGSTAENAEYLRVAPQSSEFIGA
For data set [4], the target named is T4, Cholecystokinin receptor type A (Homo sapiens, UniProt P32238). Further: in other assays of this panel Not Active means under 50% inhibition at 10 µM.
T4 sequence (P32238 whole entry): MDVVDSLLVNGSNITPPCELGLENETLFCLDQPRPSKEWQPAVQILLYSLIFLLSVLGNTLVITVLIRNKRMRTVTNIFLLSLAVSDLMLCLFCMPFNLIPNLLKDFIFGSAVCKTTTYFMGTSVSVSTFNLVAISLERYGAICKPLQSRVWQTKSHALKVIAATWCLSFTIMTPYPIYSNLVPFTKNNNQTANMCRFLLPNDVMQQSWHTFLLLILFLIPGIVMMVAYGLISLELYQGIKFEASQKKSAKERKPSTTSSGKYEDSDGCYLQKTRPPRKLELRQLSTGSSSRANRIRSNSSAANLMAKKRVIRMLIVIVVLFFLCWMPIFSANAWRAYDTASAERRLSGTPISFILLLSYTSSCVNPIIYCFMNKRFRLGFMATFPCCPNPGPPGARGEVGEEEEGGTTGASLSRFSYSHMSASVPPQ
Type of data set: cell membranes, Membrane. To be noted: 1321-n1.

Data set [5] deals with Sigma non-opioid intracellular receptor 1 (Homo sapiens, UniProt Q99720). Nature of the data set: DRUGMATRIX: Sigma1 radioligand binding (ligand: [3H] Haloperidol). To be noted: jurkat; Not Active = under 50% inhibition at 10 µM. The data set is classed as cell membranes, Jurkat, Membrane.
Sigma non-opioid intracellular receptor 1, sequence (Q99720 whole entry): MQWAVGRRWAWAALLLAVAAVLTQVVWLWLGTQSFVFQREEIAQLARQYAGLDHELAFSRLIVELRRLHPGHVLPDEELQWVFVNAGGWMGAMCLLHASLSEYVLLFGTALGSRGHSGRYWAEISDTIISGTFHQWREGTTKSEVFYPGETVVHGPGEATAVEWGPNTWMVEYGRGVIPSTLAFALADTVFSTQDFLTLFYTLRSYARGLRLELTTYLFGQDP
The nature of data set [6]: DRUGMATRIX: Potassium Channel [KATP] radioligand binding (ligand: [3H] Glyburide). Type of data set: cell membranes, Membrane. To be noted: hit-t15; Not Active = under 50% inhibition at 10 µM.

pIC50, pKi: −log10 of the molar value.

On to `CN1C[C@H](C(=O)N[C@]2(C)O[C@@]3(O)[C@@H]4CCCN4C(=O)[C@H](Cc4ccccc4)N3C2=O)C=C2c3cccc4[nH]cc(c34)C[C@H]21` [ERGOTAMINE], for which the IC50 entry (in data set [1]; against Cytochrome P450 2C19; at Progesterone receptor; against Neutrophil elastase; in data set [2]; in [3]) was “Not Active” throughout. Moreover, the IC50 result in data set [4], in data set [5] and in data set [6] was “Not Active” each time. For the same compound, the Ki entry (on Cytochrome P450 2C19; in [6]) was “Not Active” in each case.

`CCc1cccc2c3c([nH]c12)C(CC)(CC(=O)O)OCC3` (stereo not given) [ETODOLAC]: the IC50 entry (in [1]; against Cytochrome P450 2C19; at Progesterone receptor; at Neutrophil elastase; in [2]; in data set [3]) was “Not Active” throughout. The IC50 entry in data set [4], in [5] and in data set [6] was “Not Active” each time. For the same compound, the Ki result (at Cytochrome P450 2C19; in data set [6]) was “Not Active” in each case.

As to `Cc1c(-c2ccccc2)oc2c(C(=O)OCCN3CCCCC3)cccc2c1=O` [FLAVOXATE], the IC50 result (in data set [1]; on Cytochrome P450 2C19; at Progesterone receptor; against Neutrophil elastase; in [2]; in data set [3]) was “Not Active” in each case. Besides, the IC50 result in [4], in [5] and in data set [6] was “Not Active” in each case. Also, the Ki entry (at Cytochrome P450 2C19; in data set [6]) was “Not Active” each time.

`CC(=O)[C@@]1(O)CC[C@H]2[C@@H]3C[C@H](C)C4=CC(=O)C=C[C@]4(C)[C@@]3(F)[C@@H](O)C[C@@]21C` [FLUOROMETHOLONE]: the IC50 entry (in [1]; at Cytochrome P450 2C19; against Neutrophil elastase; in [2]; in data set [3]; in data set [4]) was “Not Active” in each case. Moreover, the IC50 result in data set [5] and in [6] was “Not Active” each time. Besides, the Ki entry (at Cytochrome P450 2C19; in [6]) was “Not Active” throughout. On Progesterone receptor (read-out: IC50), the pIC50 was 6.09. Also, the pKi at Progesterone receptor (read-out: Ki) was 6.97.

In the case of `O=c1[nH]cc(F)c(=O)[nH]1` [FLUOROURACIL], the IC50 entry (in [1]; against Cytochrome P450 2C19; on Progesterone receptor; against Neutrophil elastase; in data set [2]; in data set [3]) was “Not Active” throughout. Moreover, the IC50 result in data set [4], in data set [5] and in data set [6] was “Not Active” each time. Besides, the Ki entry (on Cytochrome P450 2C19; in data set [6]) was “Not Active” in each case.

With `CC(C)n1c(/C=C/C(O)CC(O)CC(=O)O)c(-c2ccc(F)cc2)c2ccccc21` (stereo not given) [FLUVASTATIN], the pIC50 in data set [1] (read-out: IC50) is 9.45. Also, the IC50 result (at Cytochrome P450 2C19; at Progesterone receptor; on Neutrophil elastase; in [2]; in [3]; in data set [4]) was “Not Active” each time. The IC50 entry in data set [5] and in data set [6] was “Not Active” throughout. For the same compound, the Ki result (on Cytochrome P450 2C19; in [6]) was “Not Active” each time.

Turning to `NCC1(CC(=O)O)CCCCC1` [GABAPENTIN], the IC50 entry (in data set [1]; on Cytochrome P450 2C19; on Progesterone receptor; against Neutrophil elastase; in data set [2]; in data set [3]) was “Not Active” each time. Also, the IC50 result in data set [4], in data set [5] and in data set [6] was “Not Active” each time. The Ki result (on Cytochrome P450 2C19; in [6]) was “Not Active” each time.

In the case of `CC[N+](CC)(CC)CCOc1cccc(OCC[N+](CC)(CC)CC)c1OCC[N+](CC)(CC)CC.[I-].[I-].[I-]` [GALLAMINE TRIETHIODIDE], the IC50 result (in [1]; on Cytochrome P450 2C19; at Progesterone receptor; at Neutrophil elastase; in data set [2]; in data set [3]) was “Not Active” throughout. Moreover, the IC50 entry in [4], in [5] and in data set [6] was “Not Active” throughout. In addition, the Ki entry (on Cytochrome P450 2C19; in data set [6]) was “Not Active” each time.

As for `Nc1nc2c(ncn2COC(CO)CO)c(=O)[nH]1` [GANCICLOVIR], the IC50 result (in data set [1]; on Cytochrome P450 2C19; at Progesterone receptor; against Neutrophil elastase; in data set [2]; in [3]) was “Not Active” in each case. In addition, the IC50 entry in data set [4], in [5] and in data set [6] was “Not Active” each time. The Ki entry (at Cytochrome P450 2C19; in [6]) was “Not Active” in each case.
